Measurements from patent publication US20250367109A1, “DEVICES, SYSTEMS, AND METHODS FOR IMPROVED BONE REMODELING” (UNIVERSITY OF UTAH RESEARCH FOUNDATION, priority 2024, published 2025).

Experiment: local elution of estradiol from implant in left proximal humerus; estradiol concentration in tendon tissue samples by mass spectroscopy
Format: in vivo, wild-type rats
Settings: one week after implantation into left proximal humerus; compared with right rotator cuff, left and right Achilles tendon; 200 micrograms estradiol load
Excerpt: Drug-eluting implants analogous to drug-eluting implant 200 were comprised of polycaprolactone and estradiol. The drug-eluting implants were in the form of a cylinder 1 mm in diameter and 5 mm long, and loaded with 200 micrograms of estradiol. The drug-eluting implants were implanted into the left proximal humeri of wild-type rats. One week following implantation, the animals were euthanized and tendon tissue samples were collected at the following sites: left rotator cuff (target site), right rotator cuff, left Achilles tendon, and right Achilles tendon. Mass spectroscopy was used to determine the estradiol concentration in the tissue samples, and the results are provided in an estradiol concentration chart 300.

C[C@]12CC[C@@H]3c4ccc(O)cc4CC[C@H]3[C@@H]1CC[C@@H]2O [estradiol]
estradiol concentration in left rotator cuff tissue (target site) relative to remote tendon sites: significantly higher local estradiol concentrations at the target region relative to other regions
